Laboratory results reported in patent publication US20250346600A1, “TRICYCLIC DERIVATIVES AND RELATED USES” (MOMA Therapeutics, Inc., priority 2023, published 2025).
Where two headings read alike, the source gives them in different places.

Experiments:
[1] = target: T1, Full length WRN protein (aa 2-1432) (Homo sapiens (Human), UniProt Q14191); experiment: WRN ATPase ADP-Glo biochemical assay, Assay Format A (10 μM ATP); conditions: 0.25 nM WRN, 100 nM C6.18 ssDNA, 30 min preincubation, read-out: ATPase ADPGlo AC50 (uM)- Assay Format A
T1 sequence (Q14191 2-1432): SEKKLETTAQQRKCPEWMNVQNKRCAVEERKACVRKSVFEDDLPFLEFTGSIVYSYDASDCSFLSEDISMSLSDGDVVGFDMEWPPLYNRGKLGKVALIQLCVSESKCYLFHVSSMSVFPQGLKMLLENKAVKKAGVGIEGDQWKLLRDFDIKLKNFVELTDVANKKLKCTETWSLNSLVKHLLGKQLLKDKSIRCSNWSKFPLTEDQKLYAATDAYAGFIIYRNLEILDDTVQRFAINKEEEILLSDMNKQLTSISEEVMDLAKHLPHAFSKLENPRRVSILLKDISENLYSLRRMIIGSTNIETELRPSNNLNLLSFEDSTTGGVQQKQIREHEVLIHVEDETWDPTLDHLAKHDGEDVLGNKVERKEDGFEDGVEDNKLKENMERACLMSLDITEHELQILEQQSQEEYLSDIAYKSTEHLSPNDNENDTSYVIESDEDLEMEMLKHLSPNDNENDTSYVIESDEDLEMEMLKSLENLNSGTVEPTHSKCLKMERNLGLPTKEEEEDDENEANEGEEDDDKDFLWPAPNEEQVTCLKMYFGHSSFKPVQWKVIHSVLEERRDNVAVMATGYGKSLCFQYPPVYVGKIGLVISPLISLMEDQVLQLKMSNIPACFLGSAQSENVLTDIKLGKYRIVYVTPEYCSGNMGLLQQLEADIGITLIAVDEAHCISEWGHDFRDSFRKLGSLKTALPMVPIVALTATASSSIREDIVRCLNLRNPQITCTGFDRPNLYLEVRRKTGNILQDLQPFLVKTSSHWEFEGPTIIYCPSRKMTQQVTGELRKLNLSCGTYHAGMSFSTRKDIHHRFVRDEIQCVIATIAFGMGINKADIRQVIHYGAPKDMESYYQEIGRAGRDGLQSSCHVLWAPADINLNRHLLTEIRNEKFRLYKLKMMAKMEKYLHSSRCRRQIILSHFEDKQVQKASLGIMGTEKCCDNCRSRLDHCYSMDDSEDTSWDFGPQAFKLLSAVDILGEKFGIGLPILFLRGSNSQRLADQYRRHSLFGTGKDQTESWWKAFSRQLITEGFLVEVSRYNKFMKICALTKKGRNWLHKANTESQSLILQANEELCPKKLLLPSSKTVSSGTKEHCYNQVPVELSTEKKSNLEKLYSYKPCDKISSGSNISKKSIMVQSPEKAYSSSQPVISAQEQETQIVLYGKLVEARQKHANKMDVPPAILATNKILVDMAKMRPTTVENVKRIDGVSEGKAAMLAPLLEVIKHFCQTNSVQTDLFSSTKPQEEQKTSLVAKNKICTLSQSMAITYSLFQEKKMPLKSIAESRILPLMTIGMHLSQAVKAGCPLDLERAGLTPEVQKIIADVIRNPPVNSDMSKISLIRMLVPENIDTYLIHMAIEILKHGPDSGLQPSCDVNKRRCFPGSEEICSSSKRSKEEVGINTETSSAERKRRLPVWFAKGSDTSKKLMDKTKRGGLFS
Procedure, shortened: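 ADP-Glo luminescence measured hydrolysis of ATP by purified, baculovirus-expressed N-terminally tagged full-length WRN. Enzyme (0.5 nM) was preincubated 30 min with compound, then 200 nM ssDNA C6.18 plus 20 μM ATP were added (pre-mix levels) for 30 min at RT. IC50s come from four-parameter fits, geometric mean of at least two trials.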

[2] = target: T1, Full length WRN protein (aa 2-1432); experiment: WRN ATPase ADP-Glo biochemical assay, Assay Format B (100 μM ATP); conditions: 0.25 nM WRN, 100 nM C6.18 ssDNA, 60 min preincubation, read-out: ATPase ADPGlo AC50 (uM)- Assay Format B
HCT116 cells = experiment: HCT116 (MSI) 7 day viability, CellTiter Glo; type: cell-based; conditions: 7 days, read-out: HCT116 (MSI) Viability 7 Day Abs AC50
Procedure, shortened: (§1)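 10 mM DMSO stocks serially diluted 3-fold, 10 steps; cells added (HCT116 50/well, HT29 500/well); 7 d, 37 °C, 5% CO2; CellTiter Glo 20 min RT; luminescence.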

HT29 cells = experiment: HT29 (MSS) 7 day viability, CellTiter Glo; type: cell-based; conditions: 7 days, read-out: HT29 (MSS) Viability 7 Day CTGAbs AC50
Procedure, shortened: as §1

SMILES	AC50 [1]	AC50 [2]	AC50 (HCT116 cells; Homo sapiens, HCT-116, 168 h)	AC50 (HT29 cells; Homo sapiens, HT-29, 168 h)	AC50 (HCT116 cells)	AC50 (HT29 cells)
C=CC(=O)N1CCc2nn(-c3ccc(C4CC4)cc3)c3c2C(C1)N(C(=O)c1ccc(C#N)c2[nH]cnc12)CC3 (stereo not drawn) [Compound 18, 4-(7-acryloyl-2-(4-cyclopropylphenyl)-3,4,5,5a,6,7,8,9-octahydro-2H-1,2,5,7-tetraazabenzo[cd]azulene-5-carbonyl)-1H-benzo[d]imidazole-7-carbonitrile]	0.0015 to 0.005 µM	0.015 to 0.055 µM	1 to 100 nM	> 3000 nM	–	–
C=CC(=O)N1CCc2nn(-c3ccc(C45CC(C4)C5)cc3)c3c2C(C1)N(C(=O)c1ccc(C(F)(F)F)c2[nH]ncc12)CC3 (stereo not drawn) [Compound 19, 1-(2-(4-(bicyclo[1.1.1]pentan-1-yl)phenyl)-5-(7-(trifluoromethyl)-1H-indazole-4-carbonyl)-2,3,4,5,5a,6,8,9-octahydro-7H-1,2,5,7-tetraazabenzo[cd]azulen-7-yl)prop-2-en-1-one]	0.0015 to 0.005 µM	0.015 to 0.055 µM	1 to 100 nM	> 3000 nM	–	–
C=CC(=O)N1CCc2nn(-c3ccc(C(C)C)cc3O)c3c2C(C1)N(C(=O)c1ccc(Br)c2[nH]cnc12)CC3 (stereo not drawn) [Compound 20, 1-(5-(7-bromo-1H-benzo[d]imidazole-4-carbonyl)-2-(2-hydroxy-4-isopropylphenyl)-2,3,4,5,5a,6,8,9-octahydro-7H-1,2,5,7-tetraazabenzo[cd]azulen-7-yl)prop-2-en-1-one]	< 0.0015 µM	0.005 to 0.015 µM	1 to 100 nM	> 3000 nM	–	–
C=CC(=O)N1CCc2nn(-c3ccc(C(C)C)cc3O)c3c2C(C1)N(C(=O)c1cnc(C(F)(F)F)c(O)c1)CC3 (stereo not drawn) [Compound 21, 1-(2-(2-hydroxy-4-isopropylphenyl)-5-(5-hydroxy-6-(trifluoromethyl)nicotinoyl)-2,3,4,5,5a,6,8,9-octahydro-7H-1,2,5,7-tetraazabenzo[cd]azulen-7-yl)prop-2-en-1-one]	< 0.0015 µM	0.005 to 0.015 µM	1 to 100 nM	> 3000 nM	–	–
C=CC(=O)N1CCc2nn(-c3ccc(C(C)C)cc3O)c3c2C(C1)N(C(=O)c1cnc(Br)c2[nH]cnc12)CC3 (stereo not drawn) [Compound 22, 1-(5-(4-bromo-3H-imidazo[4,5-c]pyridine-7-carbonyl)-2-(2-hydroxy-4-isopropylphenyl)-2,3,4,5,5a,6,8,9-octahydro-7H-1,2,5,7-tetraazabenzo[cd]azulen-7-yl)prop-2-en-1-one]	0.0015 to 0.005 µM	0.015 to 0.055 µM	250 to 500 nM	> 3000 nM	–	–
C=CC(=O)N1CCc2nn(-c3ccc(C4CCC4)cc3O)c3c2C(C1)N(C(=O)c1ccc(Br)c2[nH]cnc12)CC3 (stereo not drawn) [Compound 23, 1-(5-(7-bromo-1H-benzo[d]imidazole-4-carbonyl)-2-(4-cyclobutyl-2-hydroxyphenyl)-2,3,4,5,5a,6,8,9-octahydro-7H-1,2,5,7-tetraazabenzo[cd]azulen-7-yl)prop-2-en-1-one]	< 0.0015 µM	0.0015 to 0.005 µM	1 to 100 nM	> 3000 nM	–	–
C=CC(=O)N1CCc2nn(-c3ccc(C4CCC4)cc3O)c3c2C(C1)N(C(=O)c1ccc2c(Br)n[nH]c2c1)CC3 (stereo not drawn) [Compound 24, 1-(5-(3-bromo-1H-indazole-6-carbonyl)-2-(4-cyclobutyl-2-hydroxyphenyl)-2,3,4,5,5a,6,8,9-octahydro-7H-1,2,5,7-tetraazabenzo[cd]azulen-7-yl)prop-2-en-1-one]	< 0.0015 µM	0.005 to 0.015 µM	1 to 100 nM	> 3000 nM	–	–
C=CC(=O)N1CCc2nn(-c3ccc(C4CCC4)cc3O)c3c2C(C1)N(C(=O)c1cnc(C(F)(F)F)c(O)c1)CC3 (stereo not drawn) [Compound 25, 1-(2-(4-cyclobutyl-2-hydroxyphenyl)-5-(5-hydroxy-6-(trifluoromethyl)nicotinoyl)-2,3,4,5,5a,6,8,9-octahydro-7H-1,2,5,7-tetraazabenzo[cd]azulen-7-yl)prop-2-en-1-one]	< 0.0015 µM	0.005 to 0.015 µM	1 to 100 nM	> 3000 nM	–	–
C=CC(=O)N1CCc2nn(-c3ccc(C4CCC4)cc3)c3c2C(C1)N(C(=O)c1cnc(C(F)(F)F)c(O)c1)CC3 (stereo not drawn) [Compound 26, 1-(2-(4-cyclobutylphenyl)-5-(5-hydroxy-6-(trifluoromethyl)nicotinoyl)-2,3,4,5,5a,6,8,9-octahydro-7H-1,2,5,7-tetraazabenzo[cd]azulen-7-yl)prop-2-en-1-one]	< 0.0015 µM	0.005 to 0.015 µM	1 to 100 nM	> 3000 nM	–	–
C=CC(=O)N1CC(OC)c2nn(-c3ccc(C4CCC4)cc3)c3c2C(C1)N(C(=O)c1ccc(Br)c2[nH]cnc12)CC3 (stereo not drawn) [Compound 27, 1-(5-(7-bromo-1H-benzo[d]imidazole-4-carbonyl)-2-(4-cyclobutylphenyl)-9-methoxy-2,3,4,5,5a,6,8,9-octahydro-7H-1,2,5,7-tetraazabenzo[cd]azulen-7-yl)prop-2-en-1-one]	< 0.0015 µM	0.0015 to 0.005 µM	1 to 100 nM	> 3000 nM	–	–
C=CC(=O)N1CC(F)c2nn(-c3ccc(C4CCC4)cc3)c3c2C(C1)N(C(=O)c1ccc(Br)c2[nH]cnc12)CC3 (stereo not drawn) [Compound 28, 1-(5-(7-bromo-1H-benzo[d]imidazole-4-carbonyl)-2-(4-cyclobutylphenyl)-9-fluoro-2,3,4,5,5a,6,8,9-octahydro-7H-1,2,5,7-tetraazabenzo[cd]azulen-7-yl)prop-2-en-1-one]	< 0.0015 µM	0.0015 to 0.005 µM	1 to 100 nM	1000 to 3000 nM	–	–
C=CC(=O)N1CCc2nn(-c3ccc(C45CC(C4)C5)nc3)c3c2C(C1)N(C(=O)c1ccc(Br)c2[nH]cnc12)CC3 (stereo not drawn) [Compound 29, 1-(2-(6-(bicyclo[1.1.1]pentan-1-yl)pyridin-3-yl)-5-(7-bromo-1H-benzo[d]imidazole-4-carbonyl)-2,3,4,5,5a,6,8,9-octahydro-7H-1,2,5,7-tetraazabenzo[cd]azulen-7-yl)prop-2-en-1-one]	0.015 to 0.055 µM	> 0.055 µM	100 to 250 nM	> 3000 nM	–	–
C=CC(=O)N1CCc2nn(-c3ccc(C45CC(C4)C5)cc3F)c3c2C(C1)N(C(=O)c1ccc(Br)c2[nH]cnc12)CC3 (stereo not drawn) [Compound 30, 1-(2-(4-(bicyclo[1.1.1]pentan-1-yl)-2-fluorophenyl)-5-(7-bromo-1H-benzo[d]imidazole-4-carbonyl)-2,3,4,5,5a,6,8,9-octahydro-7H-1,2,5,7-tetraazabenzo[cd]azulen-7-yl)prop-2-en-1-one]	< 0.0015 µM	0.005 to 0.015 µM	1 to 100 nM	> 3000 nM	–	–
C=CC(=O)N1CC(C)c2nn(-c3ccc(C(C)C)cc3O)c3c2C(C1)N(C(=O)c1ccc(Br)c2[nH]cnc12)CC3 (stereo not drawn) [Compound 31, 1-(5-(7-bromo-1H-benzo[d]imidazole-4-carbonyl)-2-(2-hydroxy-4-isopropylphenyl)-9-methyl-2,3,4,5,5a,6,8,9-octahydro-7H-1,2,5,7-tetraazabenzo[cd]azulen-7-yl)prop-2-en-1-one]	0.0015 to 0.005 µM	0.015 to 0.055 µM	–	> 3000 nM	250 to 500 nM	–
C=CC(=O)N1CC(C)c2nn(-c3ccc(C(C)C)cc3O)c3c2C(C1)N(C(=O)c1ccc(Br)c2[nH]cnc12)CC3 (stereo not drawn) [Compound 32, 1-(5-(7-bromo-1H-benzo[d]imidazole-4-carbonyl)-2-(2-hydroxy-4-isopropylphenyl)-9-methyl-2,3,4,5,5a,6,8,9-octahydro-7H-1,2,5,7-tetraazabenzo[cd]azulen-7-yl)prop-2-en-1-one]	< 0.0015 µM	0.005 to 0.015 µM	–	–	1 to 100 nM	> 3000 nM
C=CC(=O)N1CC(C)c2nn(-c3ccc(C(C)C)cc3)c3c2C(C1)N(C(=O)c1ccc(Br)c2[nH]cnc12)CC3 (stereo not drawn) [Compound 33, 1-(5-(7-bromo-1H-benzo[d]imidazole-4-carbonyl)-2-(4-isopropylphenyl)-9-methyl-2,3,4,5,5a,6,8,9-octahydro-7H-1,2,5,7-tetraazabenzo[cd]azulen-7-yl)prop-2-en-1-one]	0.0015 to 0.005 µM	0.005 to 0.015 µM	–	> 3000 nM	1 to 100 nM	–
C=CC(=O)N1CC(C)c2nn(-c3ccc(C(C)C)cc3)c3c2C(C1)N(C(=O)c1ccc(Br)c2[nH]cnc12)CC3 (stereo not drawn) [Compound 34, 1-(5-(7-bromo-1H-benzo[d]imidazole-4-carbonyl)-2-(4-isopropylphenyl)-9-methyl-2,3,4,5,5a,6,8,9-octahydro-7H-1,2,5,7-tetraazabenzo[cd]azulen-7-yl)prop-2-en-1-one]	0.0015 to 0.005 µM	0.005 to 0.015 µM	–	–	250 to 500 nM	> 3000 nM
C=CC(=O)N1CCc2nc(-c3ccc(C(C)C)cc3)n3c2C(C1)N(C(=O)c1ccc(Br)c2[nH]cnc12)CC3 (stereo not drawn) [Compound 38, 1-(5-(7-bromo-1H-benzo[d]imidazole-4-carbonyl)-2-(4-isopropylphenyl)-4,5,5a,6,8,9-hexahydro-1,2a,5,7-tetraazabenzo[cd]azulen-7(3H)-yl)prop-2-en-1-one]	< 0.0015 µM	0.005 to 0.015 µM	1 to 100 nM	> 3000 nM	–	–
